Assays:
[1] = system: hearts from chronically hypoxic infant rabbits; parameters: species or system New Zealand White rabbit
Description: (§1) Animals. Rabbits used in the study received humane care in compliance with the “Guide for the Care and Use of Laboratory Animals” formulated by the National Research Council, 1996. Infant New Zealand White rabbits were maintained for 10 days in a normoxic (SaO2>95%) or hypoxic (SaO2<85%) environment as described in Baker et al., Circulation 99:1249-54 (1999).
(§2) Isolated heart perfusion. Isolated rabbit hearts were perfused with bicarbonate buffer at constant pressure in a retrograde manner and instrumented as described in Baker et al., Circulation 99:1249-54 (1999). Protein kinase inhibitors, potassium channel blockers or nitric oxide synthase inhibitors were added to this perfusate as needed. A 3-way tap, located immediately above the site of cannulation, allowed the entire perfusate to be diverted away from the heart to produce global, no-flow ischemia. Reperfusion was achieved by repositioning of the tap to allow perfusate to be delivered to the heart. Left and right ventricular function was monitored continuously throughout each experiment as described in Baker et al., Circulation 99:1249-54 (1999). End-diastolic pressure was initially set to 3 mmHg for 2 minutes. The balloons were then progressively inflated with a microsyringe to set end-diastolic pressures to 8 mmHg for the left ventricle and 4 mmHg for the right ventricle, with developed pressure and heart rate recorded during steady-state conditions. Coronary flow rate was measured throughout the experiment by timed collections of the coronary effluent from the right side of the heart into a graduated cylinder. Coronary flow rate was expressed as milliliters per minute per gram wet weight.
(§3) Resistance to myocardial ischemia. Hearts from infant rabbits were perfused with bicarbonate buffer, and biventricular function was monitored continuously throughout each experiment as described in Rafiee et al., Circulation 106:239-45 (2002). For concentration response studies, hearts were then perfused with erythropoietin (0.5-10.0 U/ml) for 15 minutes prior to 30 minutes ischemia and 35 minutes reperfusion. For mechanism studies with protein kinase inhibitors, potassium channel blockers or nitric oxide synthase inhibitors, hearts were perfused with drugs for 15 minutes alone followed by 15 minutes in combination with erythropoietin prior to ischemia. Hearts perfused with protein kinase inhibitors or potassium channel blockers alone in the absence of erythropoietin for 30 minutes prior to ischemia served as untreated controls for these studies. Recovery of post-ischemic left and right ventricular developed pressure was expressed as a percentage of its pre-drug, pre-ischemic value.
Hearts from 10 day old chronically hypoxic rabbits were treated with erythropoietin at a concentration of 1.0 U/ml.

[2] = system: hearts from normoxic infant rabbits; test: Isolated Langendorff-perfused heart, 30 min global no-flow ischemia and 35 min reperfusion, normoxic hearts; parameters: species or system New Zealand White rabbit; conditions: for POST DRUG Coronary flow rate / POST DRUG Heart rate / POST DRUG Left ventricle developed pressure / POST DRUG Right ventricle developed pressure / REPERFUSION (35 min) Coronary flow rate / REPERFUSION (35 min) Heart rate / REPERFUSION (35 min) Left ventricle developed pressure / REPERFUSION (35 min) Right ventricle developed pressure: normoxic hearts; for REPERFUSION (35 min) Coronary flow rate / REPERFUSION (35 min) Heart rate / REPERFUSION (35 min) Left ventricle developed pressure / REPERFUSION (35 min) Right ventricle developed pressure: after 30 min ischemia
Description: The study was directed to determining whether erythropoietin (0.5-10.0 U/ml) confers immediate cardioprotection in infant rabbit hearts and the contribution of protein kinases, nitric oxide synthase and potassium channels to the underlying mechanism. Hearts from normoxic infant Zealand White rabbits (n=8/group) were isolated and perfused in the Langendorff mode. Biventricular function was recorded under steady-state conditions prior to 30 minutes global no flow ischemia and 35 minutes reperfusion.
as §1, §2, §3
Assessment of ventricular function. Left and right ventricular function was monitored continuously throughout each experiment as described in Rafiee et al., Circulation 106:239-45 (2002).
Hearts from New Zealand White rabbits at 9 days of age were perfused with erythropoietin at 0, 0.5, 1.0, 2.5, 5.0, and 10.0 U/ml for 15 minutes prior to 30 minutes global ischemia and 35 minutes reperfusion. Erythropoietin (1.0 U/ml) reduced coronary flow rate prior to ischemia from 7 ml/min/g to 6 ml/min/g but had no effect on heart rate (220±18 beats/min) or developed pressure in left (106±3 mm Hg) or right (42±3 mm Hg) ventricle.

[3] = chronically hypoxic hearts, EPO 1.0 U/ml for 15 min
[4] = chronically hypoxic hearts, EPO 1.0 U/ml, after 30 min ischemia
[5] = erythropoietin 1.0 U/ml, no effect

erythropoietin: Recombinant human erythropoietin, a glycoprotein hormone, obtained from Cell Science, Inc.
adverse effect on ischemic myocardium [1]: did not appear to exert any adverse effect
POST DRUG Coronary flow rate [1, 3]: 5 ± 1 mL/min/g
POST DRUG Heart rate [1, 3]: 181 ± 16 beats/min
POST DRUG Left ventricle developed pressure [1, 3]: 117 ± 15 mmHg
POST DRUG Right ventricle developed pressure [1, 3]: 46 ± 8 mmHg
REPERFUSION (35 min) Coronary flow rate [1, 4]: 6 ± 2 mL/min/g
REPERFUSION (35 min) Heart rate [1, 4]: 204 ± 25 beats/min
REPERFUSION (35 min) Left ventricle developed pressure [1, 4]: 77 ± 7 mmHg
REPERFUSION (35 min) Right ventricle developed pressure [1, 4]: 42 ± 6 mmHg
cardioprotection after 20 minutes treatment versus 15-minute treatment ([2]; 1.0 U/ml for 20 minutes): no further increase in cardioprotection
minimum treatment period needed to confer cardioprotection in both left and right ventricle ([2]; 1.0 U/ml prior to ischemia): 15 min
protective concentrations of erythropoietin in the in vitro studies ([2]; 15 min prior to ischemia): 0.5-5.0 units/ml
developed pressure in left ventricle prior to ischemia [2, 5]: 106±3 mm Hg
developed pressure in right ventricle prior to ischemia [2, 5]: 42±3 mm Hg
heart rate prior to ischemia [2, 5]: 220±18 beats/min
coronary flow rate prior to ischemia ([2]; erythropoietin 1.0 U/ml, reduced from 7 ml/min/g): 6 mL/min/g
POST DRUG Coronary flow rate ([2]; EPO 0.5 U/ml for 15 min): 3 ± 1 mL/min/g
POST DRUG Heart rate ([2]; EPO 0.5 U/ml for 15 min): 196 ± 21 beats/min
POST DRUG Left ventricle developed pressure ([2]; EPO 0.5 U/ml for 15 min): 102 ± 8 mmHg
POST DRUG Right ventricle developed pressure ([2]; EPO 0.5 U/ml for 15 min): 38 ± 5 mmHg
REPERFUSION (35 min) Coronary flow rate ([2]; EPO 0.5 U/ml): 4 ± 1 mL/min/g
REPERFUSION (35 min) Heart rate ([2]; EPO 0.5 U/ml): 210 ± 19 beats/min
REPERFUSION (35 min) Left ventricle developed pressure ([2]; EPO 0.5 U/ml): 67 ± 3 mmHg
REPERFUSION (35 min) Right ventricle developed pressure ([2]; EPO 0.5 U/ml): 31 ± 4 mmHg
POST DRUG Coronary flow rate ([2]; EPO 1.0 U/ml for 15 min): 3 ± 1 mL/min/g
POST DRUG Heart rate ([2]; EPO 1.0 U/ml for 15 min): 199 ± 25 beats/min
POST DRUG Left ventricle developed pressure ([2]; EPO 1.0 U/ml for 15 min): 99 ± 4 mmHg
POST DRUG Right ventricle developed pressure ([2]; EPO 1.0 U/ml for 15 min): 38 ± 3 mmHg
REPERFUSION (35 min) Coronary flow rate ([2]; EPO 1.0 U/ml): 5 ± 1 mL/min/g
REPERFUSION (35 min) Heart rate ([2]; EPO 1.0 U/ml): 210 ± 30 beats/min
REPERFUSION (35 min) Left ventricle developed pressure ([2]; EPO 1.0 U/ml): 71 ± 8 mmHg
REPERFUSION (35 min) Right ventricle developed pressure ([2]; EPO 1.0 U/ml): 31 ± 2 mmHg
POST DRUG Coronary flow rate ([2]; EPO 2.5 U/ml for 15 min): 4 ± 1 mL/min/g
POST DRUG Heart rate ([2]; EPO 2.5 U/ml for 15 min): 210 ± 20 beats/min
POST DRUG Left ventricle developed pressure ([2]; EPO 2.5 U/ml for 15 min): 103 ± 4 mmHg
POST DRUG Right ventricle developed pressure ([2]; EPO 2.5 U/ml for 15 min): 41 ± 5 mmHg
REPERFUSION (35 min) Coronary flow rate ([2]; EPO 2.5 U/ml): 5 ± 2 mL/min/g
REPERFUSION (35 min) Heart rate ([2]; EPO 2.5 U/ml): 224 ± 14 beats/min
REPERFUSION (35 min) Left ventricle developed pressure ([2]; EPO 2.5 U/ml): 64 ± 3 mmHg
REPERFUSION (35 min) Right ventricle developed pressure ([2]; EPO 2.5 U/ml): 31 ± 3 mmHg
POST DRUG Coronary flow rate ([2]; EPO 5.0 U/ml for 15 min): 4 ± 1 mL/min/g
POST DRUG Heart rate ([2]; EPO 5.0 U/ml for 15 min): 221 ± 20 beats/min
POST DRUG Left ventricle developed pressure ([2]; EPO 5.0 U/ml for 15 min): 102 ± 6 mmHg
POST DRUG Right ventricle developed pressure ([2]; EPO 5.0 U/ml for 15 min): 43 ± 7 mmHg
REPERFUSION (35 min) Coronary flow rate ([2]; EPO 5.0 U/ml): 4 ± 1 mL/min/g
REPERFUSION (35 min) Heart rate ([2]; EPO 5.0 U/ml): 226 ± 26 beats/min
REPERFUSION (35 min) Left ventricle developed pressure ([2]; EPO 5.0 U/ml): 64 ± 4 mmHg
REPERFUSION (35 min) Right ventricle developed pressure ([2]; EPO 5.0 U/ml): 32 ± 5 mmHg
POST DRUG Coronary flow rate ([2]; EPO 10 U/ml for 15 min): 5 ± 2 mL/min/g
POST DRUG Heart rate ([2]; EPO 10 U/ml for 15 min): 232 ± 52 beats/min
POST DRUG Left ventricle developed pressure ([2]; EPO 10 U/ml for 15 min): 101 ± 5 mmHg
POST DRUG Right ventricle developed pressure ([2]; EPO 10 U/ml for 15 min): 40 ± 5 mmHg
REPERFUSION (35 min) Coronary flow rate ([2]; EPO 10 U/ml): 5 ± 1 mL/min/g
REPERFUSION (35 min) Heart rate ([2]; EPO 10 U/ml): 230 ± 49 beats/min
REPERFUSION (35 min) Left ventricle developed pressure ([2]; EPO 10 U/ml): 52 ± 3 mmHg
REPERFUSION (35 min) Right ventricle developed pressure ([2]; EPO 10 U/ml): 28 ± 4 mmHg

Reference: patent publication US20040198663A1, “Method of treating cardiac ischemia by using erythropoietin” (priority 2003, published 2004)
